Measurements: ChEMBL document CHEMBL1201862, “PubChem BioAssay data set” (2004)
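Each compound was tested at five concentrations against cells in 96-well plates for 48 hours. At the GI50, growth is halved.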 Calls of active or inactive are those of the source. Rule as the data show it: active = GI50 up to about 1.1 µM and inactive = higher.

Key:
Assay in all cases: growth of human tumour cells (NCI), 48 h
SW-620 = test system: SW-620
SNB-19 = test system: SNB-19
MOLT-4 = test system: MOLT-4
UACC-257 = test system: UACC-257
NCI-H226 = test system: NCI-H226
K562 = test system: K562
KM12 = test system: KM12
A549 = test system: A549
CCRF-CEM = test system: CCRF-CEM
NCI/ADR-RES = test system: NCI/ADR-RES
SF-295 = test system: SF-295
ACHN = test system: ACHN
HOP-62 = test system: HOP-62
OVCAR-3 = test system: OVCAR-3
NCI-H23 = test system: NCI-H23
CAKI-1 = test system: CAKI-1
MDA-MB-231 = test system: MDA-MB-231
SK-MEL-2 = test system: SK-MEL-2
MDA-N = test system: MDA-N

Row | SMILES | GI50 (SW-620) | GI50 (SNB-19) | GI50 (MOLT-4) | GI50 (UACC-257) | GI50 (NCI-H226) | GI50 (K562) | GI50 (KM12) | GI50 (A549) | GI50 (CCRF-CEM) | GI50 (NCI/ADR-RES) | GI50 (SF-295) | GI50 (ACHN) | GI50 (HOP-62) | GI50 (OVCAR-3) | GI50 (NCI-H23) | GI50 (CAKI-1) | GI50 (MDA-MB-231) | GI50 (SK-MEL-2) | GI50 (MDA-N)
1 | Cc1nc(Nc2ccc(Cl)c(Cl)c2)sc1C(=O)/C=C/c1ccc2c(c1)OCO2 | 40.5 µM (inactive) | 21.5 µM (inactive) | 14.9 µM (inactive) | 31.6 µM (inactive) | 25.9 µM (inactive) | 31.6 µM (inactive) | 20.9 µM (inactive) | 22.3 µM (inactive) | 31.8 µM (inactive) | 34.4 µM (inactive) | 20 µM (inactive) | 16.8 µM (inactive) | 17.9 µM (inactive) | 10.4 µM (inactive) | 20 µM (inactive) | 16.5 µM (inactive) | – | – | –
2 | CC(Oc1ccc(Cl)cc1Cl)C(=O)NN1C(=O)CC(=O)N(c2ccccc2)C1=S (stereo unspecified) | 53.1 µM (inactive) | 66.4 µM (inactive) | 46.3 µM (inactive) | 74.6 µM (inactive) | 37.8 µM (inactive) | 41.7 µM (inactive) | 18.1 µM (inactive) | 47.6 µM (inactive) | – | 39.9 µM (inactive) | 43.4 µM (inactive) | 48.1 µM (inactive) | 56.2 µM (inactive) | 42.5 µM (inactive) | 37.2 µM (inactive) | 53.6 µM (inactive) | 65.9 µM (inactive) | 42.2 µM (inactive) | –
3 | N#Cc1c(C#N)c(-c2ccco2)n(/N=C/c2ccco2)c1N | > 100 µM (inactive) | 24.9 µM (inactive) | 94.6 µM (inactive) | > 100 µM (inactive) | 18.8 µM (inactive) | > 100 µM (inactive) | > 100 µM (inactive) | 47.5 µM (inactive) | > 100 µM (inactive) | 65.9 µM (inactive) | 21.9 µM (inactive) | > 100 µM (inactive) | 28.1 µM (inactive) | > 100 µM (inactive) | > 100 µM (inactive) | > 100 µM (inactive) | 11.3 µM (inactive) | > 100 µM (inactive) | –
4 | Nc1ncn(C/C=C/c2ccccc2)c2ncnc1-2 | > 100 µM (inactive) | > 100 µM (inactive) | 16.6 µM (inactive) | > 100 µM (inactive) | – | 8.93 µM (inactive) | > 100 µM (inactive) | > 100 µM (inactive) | – | > 100 µM (inactive) | > 100 µM (inactive) | > 100 µM (inactive) | > 100 µM (inactive) | > 100 µM (inactive) | > 100 µM (inactive) | > 100 µM (inactive) | > 100 µM (inactive) | > 100 µM (inactive) | > 100 µM (inactive)
5 | COC(=O)C1=C(C)NC(=S)NC1c1ccc(N(CCCl)CCCl)cc1Cl (stereo unspecified) | 33 µM (inactive) | 49 µM (inactive) | 4.55 µM (inactive) | 2.44 µM (inactive) | 3.56 µM (inactive) | 8.99 µM (inactive) | 19.6 µM (inactive) | 8.2 µM (inactive) | 0.824 µM (active) | 37 µM (inactive) | 19.4 µM (inactive) | 11 µM (inactive) | 73.6 µM (inactive) | 22.6 µM (inactive) | 5.45 µM (inactive) | 2 µM (inactive) | 21 µM (inactive) | 24.2 µM (inactive) | –
6 | CC(=O)C1=C(C)N(c2ccc(C)cc2)C2(O)C3=C(C(=O)c4ccccc4C3=O)C(O)=CC12Cl (stereo unspecified) | 9.86 µM (inactive) | 12.8 µM (inactive) | 26.7 µM (inactive) | 9.38 µM (inactive) | 43 µM (inactive) | 7.43 µM (inactive) | 5.37 µM (inactive) | 17.5 µM (inactive) | – | 5.65 µM (inactive) | 5.81 µM (inactive) | 15.4 µM (inactive) | 32.2 µM (inactive) | 4.76 µM (inactive) | 12.7 µM (inactive) | 10.4 µM (inactive) | 31.8 µM (inactive) | 8.53 µM (inactive) | –
7 | COc1ccc(C2C(Cl)C(=O)N2n2cnc3ccccc3c2=O)cc1OC (stereo unspecified) | > 100 µM (inactive) | 52.4 µM (inactive) | 82.4 µM (inactive) | 32 µM (inactive) | 30.5 µM (inactive) | > 100 µM (inactive) | > 100 µM (inactive) | > 100 µM (inactive) | > 10 µM (inactive) | – | > 100 µM (inactive) | > 100 µM (inactive) | > 100 µM (inactive) | 44.6 µM (inactive) | 42 µM (inactive) | > 100 µM (inactive) | – | > 100 µM (inactive) | –
8 | O=C(CN1CCOCC1)NC1=Nc2ncccc2C(=O)NN1 | > 10 µM (inactive) | > 10 µM (inactive) | > 10 µM (inactive) | > 10 µM (inactive) | > 10 µM (inactive) | > 10 µM (inactive) | > 10 µM (inactive) | > 10 µM (inactive) | > 10 µM (inactive) | – | > 10 µM (inactive) | > 10 µM (inactive) | > 10 µM (inactive) | > 10 µM (inactive) | > 10 µM (inactive) | – | > 10 µM (inactive) | > 10 µM (inactive) | > 10 µM (inactive)
9 | CCOC(=O)CN1C(=O)C(=O)N(c2ccc(OC)c3ccccc23)C1=O | > 100 µM (inactive) | > 100 µM (inactive) | > 100 µM (inactive) | > 100 µM (inactive) | 45.1 µM (inactive) | > 100 µM (inactive) | > 100 µM (inactive) | > 100 µM (inactive) | > 100 µM (inactive) | > 100 µM (inactive) | > 100 µM (inactive) | > 100 µM (inactive) | 68.5 µM (inactive) | > 100 µM (inactive) | > 100 µM (inactive) | > 100 µM (inactive) | – | > 100 µM (inactive) | > 100 µM (inactive)
10 | CC12CN(CC[N+](C)(C)C)CC1(C)C1CCC2O1 (stereo unspecified) | > 100 µM (inactive) | > 100 µM (inactive) | > 100 µM (inactive) | > 100 µM (inactive) | > 100 µM (inactive) | > 100 µM (inactive) | > 100 µM (inactive) | > 100 µM (inactive) | > 100 µM (inactive) | > 100 µM (inactive) | > 100 µM (inactive) | > 100 µM (inactive) | > 100 µM (inactive) | > 100 µM (inactive) | > 100 µM (inactive) | > 100 µM (inactive) | > 100 µM (inactive) | > 100 µM (inactive) | –
11 | C/C(O[Si](C(C)C)(C(C)C)C(C)C)=C(\C)C(=O)N(C)c1ccccc1Cl | > 100 µM (inactive) | > 100 µM (inactive) | > 100 µM (inactive) | > 100 µM (inactive) | > 100 µM (inactive) | – | > 100 µM (inactive) | > 100 µM (inactive) | – | > 100 µM (inactive) | > 100 µM (inactive) | > 100 µM (inactive) | > 100 µM (inactive) | > 100 µM (inactive) | > 100 µM (inactive) | > 100 µM (inactive) | > 100 µM (inactive) | – | –
12 | CCN(CC)C1Oc2cc3c(cc2C(c2ccc(OC)cc2)C1C)OCO3 (stereo unspecified) | 30.3 µM (inactive) | 26.9 µM (inactive) | 17.6 µM (inactive) | 15.9 µM (inactive) | 23 µM (inactive) | 19.1 µM (inactive) | 20 µM (inactive) | 22.6 µM (inactive) | 15.5 µM (inactive) | – | 21.7 µM (inactive) | 22.5 µM (inactive) | 24.8 µM (inactive) | 18.2 µM (inactive) | 21.8 µM (inactive) | 24.9 µM (inactive) | 23.4 µM (inactive) | 17.6 µM (inactive) | 17.5 µM (inactive)
13 | CCOC(=O)c1cc2cc(C)cc(C(=O)c3ccc([N+](=O)[O-])cc3)c2[nH]1 | > 100 µM (inactive) | > 100 µM (inactive) | > 100 µM (inactive) | > 100 µM (inactive) | > 100 µM (inactive) | > 100 µM (inactive) | > 100 µM (inactive) | > 100 µM (inactive) | > 10 µM (inactive) | – | > 100 µM (inactive) | > 100 µM (inactive) | 33.4 µM (inactive) | > 100 µM (inactive) | > 100 µM (inactive) | > 100 µM (inactive) | 38.5 µM (inactive) | > 100 µM (inactive) | > 100 µM (inactive)
14 | NNC(=O)c1ccccc1Nc1nc(-c2cccs2)nc2ccc(Br)cc12 | > 100 µM (inactive) | 53.3 µM (inactive) | > 100 µM (inactive) | > 100 µM (inactive) | > 100 µM (inactive) | 77.6 µM (inactive) | 67.5 µM (inactive) | 85.1 µM (inactive) | > 100 µM (inactive) | > 100 µM (inactive) | 51.8 µM (inactive) | > 100 µM (inactive) | > 100 µM (inactive) | 25.9 µM (inactive) | > 100 µM (inactive) | 74.3 µM (inactive) | > 100 µM (inactive) | > 100 µM (inactive) | –
15 | O=C(Nc1cccc(F)c1)c1cc2ccc(O)cc2o/c1=N\c1cccc(F)c1 | 4.27 µM (inactive) | 8.97 µM (inactive) | 2.45 µM (inactive) | 9.68 µM (inactive) | – | 2.38 µM (inactive) | 6.95 µM (inactive) | 3.97 µM (inactive) | 2.22 µM (inactive) | 3.4 µM (inactive) | 13.6 µM (inactive) | 4.88 µM (inactive) | 27.9 µM (inactive) | 4.91 µM (inactive) | 2.34 µM (inactive) | 15.3 µM (inactive) | – | 8.2 µM (inactive) | 6.35 µM (inactive)
16 | Oc1ccc(-c2nc3cc(F)ccc3s2)cc1 | 41.5 µM (inactive) | 36.7 µM (inactive) | 10.4 µM (inactive) | 27.4 µM (inactive) | 17.3 µM (inactive) | 22.6 µM (inactive) | 20.5 µM (inactive) | 18.4 µM (inactive) | 43.8 µM (inactive) | 20 µM (inactive) | 19.6 µM (inactive) | 20.3 µM (inactive) | 24.7 µM (inactive) | 19.2 µM (inactive) | 32.3 µM (inactive) | 23.7 µM (inactive) | – | 19.1 µM (inactive) | 28.4 µM (inactive)
